Source: ChEMBL document CHEMBL1122324, “New antihypertensive cannabinoids” (1983)

What was measured:
Details in all cases: route oral
Rattus norvegicus [1] = experiment: Effect on spontaneous motor activity in rats after 1 hr at 0.1 mg/kg given perorally; format: functional
Rattus norvegicus [2] = experiment: Effect on spontaneous motor activity in rats after 2 hr at 0.1 mg/kg given perorally; format: functional
Rattus norvegicus [3] = experiment: Percentage decrease in systolic blood pressure (heart rate) after 1 hr at 0.3 mg/kg administered perorally in rats; format: functional, Artery
Rattus norvegicus [4] = experiment: Effect on spontaneous motor activity in rats after 2 hr at 30 mg/kg given perorally; format: functional
Rattus norvegicus [5] = experiment: Effect on spontaneous motor activity in rats after 1 hr at 1 mg/kg given perorally; format: functional
Rattus norvegicus [6] = experiment: Cumulative effect on spontaneous motor activity in rats at 0.1 mg/kg given perorally; format: functional
Rattus norvegicus [7] = experiment: Cumulative effect on spontaneous motor activity in rats at 3 mg/kg given perorally; format: functional
Rattus norvegicus [8] = experiment: Percentage decrease in systolic blood pressure (heart rate) after 1 hr at 3 mg/kg administered perorally in rats; format: functional, Artery
Rattus norvegicus [9] = experiment: Percentage decrease in systolic blood pressure (heart rate) after 1 hr at 10 mg/kg administered perorally in rats; format: functional, Artery
Rattus norvegicus [10] = experiment: Effect on spontaneous motor activity in rats after 1 hr at 30 mg/kg given perorally; format: functional
Rattus norvegicus [11] = experiment: Effect on spontaneous motor activity in rats after 1 hr at 0.3 mg/kg given perorally; format: functional
Rattus norvegicus [12] = experiment: Cumulative effect on spontaneous motor activity in rats at 0.3 mg/kg given perorally; format: functional
Rattus norvegicus [13] = experiment: Percentage decrease in systolic blood pressure (heart rate) after 4 hr at 1 mg/kg administered perorally in rats; format: functional, Artery
Rattus norvegicus [14] = experiment: Percentage decrease in systolic blood pressure (heart rate) after 24 hr at 0.3 mg/kg administered perorally in rats; format: functional, Artery
Rattus norvegicus [15] = experiment: Effect on spontaneous motor activity in rats after 2 hr at 3 mg/kg given perorally; format: functional
Rattus norvegicus [16] = experiment: Effect on spontaneous motor activity in rats after 2 hr at 10 mg/kg given perorally; format: functional
Rattus norvegicus [17] = experiment: Cumulative effect on spontaneous motor activity in rats at 300 mg/kg given perorally; format: functional
Rattus norvegicus [18] = experiment: Effect on spontaneous motor activity in rats after 1 hr at 10 mg/kg given perorally; format: functional
Rattus norvegicus [19] = experiment: Percentage decrease in systolic blood pressure (heart rate) after 6 hr at 1 mg/kg administered perorally in rats; format: functional, Artery
Rattus norvegicus [20] = experiment: Percentage decrease in systolic blood pressure (heart rate) after 4 hr at 0.3 mg/kg administered perorally in rats; format: functional, Artery
Rattus norvegicus [21] = experiment: Percentage decrease in systolic blood pressure (heart rate) after 6 hr at 0.3 mg/kg administered perorally in rats; format: functional, Artery
Rattus norvegicus [22] = experiment: Percentage decrease in systolic blood pressure (heart rate) after 4 hr at 3 mg/kg administered perorally in rats; format: functional, Artery
Rattus norvegicus [23] = experiment: Percentage decrease in systolic blood pressure (heart rate) after 24 hr at 10 mg/kg administered perorally in rats; format: functional, Artery
Rattus norvegicus [24] = experiment: Effect on spontaneous motor activity in rats after 1 hr at 3 mg/kg given perorally; format: functional
Rattus norvegicus [25] = experiment: Percentage decrease in systolic blood pressure (heart rate) after 24 hr at 1 mg/kg administered perorally in rats; format: functional, Artery
Rattus norvegicus [26] = experiment: Percentage decrease in systolic blood pressure (heart rate) after 6 hr at 3 mg/kg administered perorally in rats; format: functional, Artery
Rattus norvegicus [27] = experiment: Effect on spontaneous motor activity in rats after 2 hr at 0.3 mg/kg given perorally; format: functional
Rattus norvegicus [28] = experiment: Percentage decrease in systolic blood pressure (heart rate) after 4 hr at 10 mg/kg administered perorally in rats; format: functional, Artery
Rattus norvegicus [29] = experiment: Effect on spontaneous motor activity in rats after 2 hr at 1 mg/kg given perorally; format: functional
Rattus norvegicus [30] = experiment: Percentage decrease in systolic blood pressure after 4 hr at 1 mg/kg administered perorally in rats; format: functional, Artery
Rattus norvegicus [31] = experiment: percentage decrease in heart rate after 24 hr at a dose of 10 mg/kg administered perorally in rats; format: functional
Rattus norvegicus [32] = experiment: percentage decrease in heart rate after 4 hr at a dose of 1 mg/kg administered perorally in rats; format: functional
Rattus norvegicus [33] = experiment: percentage decrease in heart rate after 6 hr at a dose of 10 mg/kg administered perorally in rats; format: functional
Rattus norvegicus [34] = experiment: Percentage decrease in systolic blood pressure after 4 hr at 10 mg/kg administered perorally in rats; format: functional, Artery
Rattus norvegicus [35] = experiment: Percentage decrease in systolic blood pressure after 4 hr at 0.3 mg/kg administered perorally in rats; format: functional, Artery
Rattus norvegicus [36] = experiment: percentage decrease in heart rate after 4 hr at a dose of 0.3 mg/kg administered perorally in rats; format: functional
Rattus norvegicus [37] = experiment: Percentage decrease in systolic blood pressure after 6 hr at 1 mg/kg administered perorally in rats; format: functional, Artery
Rattus norvegicus [38] = experiment: Percentage decrease in systolic blood pressure after 6 hr at 0.3 mg/kg administered perorally in rats; format: functional, Artery
Rattus norvegicus [39] = experiment: percentage decrease in heart rate after 6 hr at a dose of 1 mg/kg administered perorally in rats; format: functional
Rattus norvegicus [40] = experiment: percentage decrease in heart rate after 1 hr at a dose of 30 mg/kg administered perorally in rats; format: functional
Rattus norvegicus [41] = experiment: percentage decrease in heart rate after 4 hr at a dose of 30 mg/kg administered perorally in rats; format: functional
Rattus norvegicus [42] = experiment: Percentage decrease in systolic blood pressure after 1 hr at 1 mg/kg administered perorally in rats; format: functional, Artery
Rattus norvegicus [43] = experiment: percentage decrease in heart rate after 1 hr at a dose of 10 mg/kg administered perorally in rats; format: functional
Rattus norvegicus [44] = experiment: Percentage decrease in systolic blood pressure after 24 hr at 10 mg/kg administered perorally in rats; format: functional, Artery
Rattus norvegicus [45] = experiment: Percentage decrease in systolic blood pressure after 24 hr at 3 mg/kg administered perorally in rats; format: functional, Artery
Rattus norvegicus [46] = experiment: percentage decrease in heart rate after 24 hr at a dose of 1 mg/kg administered perorally in rats; format: functional
Rattus norvegicus [47] = experiment: percentage decrease in heart rate after 6 hr at a dose of 0.3 mg/kg administered perorally in rats; format: functional
Rattus norvegicus [48] = experiment: Percentage decrease in systolic blood pressure after 4 hr at 3 mg/kg administered perorally in rats; format: functional, Artery
Rattus norvegicus [49] = experiment: Percentage decrease in systolic blood pressure after 24 hr at 0.3 mg/kg administered perorally in rats; format: functional, Artery
Rattus norvegicus [50] = experiment: Percentage decrease in systolic blood pressure after 6 hr at 30 mg/kg administered perorally in rats; format: functional, Artery
Rattus norvegicus [51] = experiment: Percentage decrease in systolic blood pressure after 1 hr at 30 mg/kg administered perorally in rats; format: functional, Artery
Rattus norvegicus [52] = experiment: Percentage decrease in systolic blood pressure after 1 hr at 3 mg/kg administered perorally in rats; format: functional, Artery
Rattus norvegicus [53] = experiment: percentage decrease in heart rate after 4 hr at a dose of 3 mg/kg administered perorally in rats; format: functional
Rattus norvegicus [54] = experiment: percentage decrease in heart rate after 4 hr at a dose of 10 mg/kg administered perorally in rats; format: functional
Rattus norvegicus [55] = experiment: Percentage decrease in systolic blood pressure after 1 hr at 0.3 mg/kg administered perorally in rats; format: functional, Artery
Rattus norvegicus [56] = experiment: percentage decrease in heart rate after 1 hr at a dose of 1 mg/kg administered perorally in rats; format: functional
Rattus norvegicus [57] = experiment: Percentage decrease in systolic blood pressure after 6 hr at 3 mg/kg administered perorally in rats; format: functional, Artery
Rattus norvegicus [58] = experiment: Percentage decrease in systolic blood pressure after 1 hr at 10 mg/kg administered perorally in rats; format: functional, Artery
Rattus norvegicus [59] = experiment: percentage decrease in heart rate after 24 hr at a dose of 0.3 mg/kg administered perorally in rats; format: functional
Rattus norvegicus [60] = experiment: percentage decrease in heart rate after 6 hr at a dose of 30 mg/kg administered perorally in rats; format: functional
Rattus norvegicus [61] = experiment: percentage decrease in heart rate after 1 hr at a dose of 0.3 mg/kg administered perorally in rats; format: functional
Rattus norvegicus [62] = experiment: Percentage decrease in systolic blood pressure after 24 hr at 1 mg/kg administered perorally in rats; format: functional, Artery
Rattus norvegicus [63] = experiment: percentage decrease in heart rate after 1 hr at a dose of 3 mg/kg administered perorally in rats; format: functional
Rattus norvegicus [64] = experiment: Percentage decrease in systolic blood pressure after 24 hr at 30 mg/kg administered perorally in rats; format: functional, Artery
Rattus norvegicus [65] = experiment: percentage decrease in heart rate after 6 hr at a dose of 3 mg/kg administered perorally in rats; format: functional
Rattus norvegicus [66] = experiment: Percentage decrease in systolic blood pressure after 6 hr at 10 mg/kg administered perorally in rats; format: functional, Artery
Rattus norvegicus [67] = experiment: percentage decrease in heart rate after 24 hr at a dose of 3 mg/kg administered perorally in rats; format: functional
Rattus norvegicus [68] = experiment: Percentage decrease in systolic blood pressure after 4 hr at 30 mg/kg administered perorally in rats; format: functional, Artery
Rattus norvegicus [69] = experiment: Percentage decrease in systolic blood pressure (heart rate) after 24 hr at 100 mg/kg administered perorally in rats; format: functional, Artery
Rattus norvegicus [70] = experiment: Percentage decrease in systolic blood pressure (heart rate) after 4 hr at 100 mg/kg administered perorally in rats; format: functional, Artery

## CCCCCCCc1cc(O)c2c(c1)OC(C)(C)c1ccc(C)cc1-2
Rattus norvegicus [1]
  Activity: -3%
Rattus norvegicus [2]
  Activity: 10%
Rattus norvegicus [3]
  Decrease in Systolic blood pressure: 3%
Rattus norvegicus [4]
  Activity: -94%
Rattus norvegicus [5]
  Activity: -32%
Rattus norvegicus [6]
  Activity: -2%
Rattus norvegicus [7]
  Activity: -20%
Rattus norvegicus [8]
  Decrease in Systolic blood pressure: 3%
Rattus norvegicus [9]
  Decrease in Systolic blood pressure: 9%
Rattus norvegicus [10]
  Activity: -88%
Rattus norvegicus [11]
  Activity: -21%
Rattus norvegicus [12]
  Activity: -17%
Rattus norvegicus [13]
  Decrease in Systolic blood pressure: 20%
Rattus norvegicus [14]
  Decrease in Systolic blood pressure: 0%
Rattus norvegicus [15]
  Activity: -17%
Rattus norvegicus [16]
  Activity: -98%
Rattus norvegicus [17]
  Activity: -89%
Rattus norvegicus [18]
  Activity: -46%
Rattus norvegicus [19]
  Decrease in Systolic blood pressure: 33%
Rattus norvegicus [20]
  Decrease in Systolic blood pressure: 10%
Rattus norvegicus [21]
  Decrease in Systolic blood pressure: 2%
Rattus norvegicus [22]
  Decrease in Systolic blood pressure: 44%
Rattus norvegicus [23]
  Decrease in Systolic blood pressure: 29%
Rattus norvegicus [24]
  Activity: -20%
Rattus norvegicus [25]
  Decrease in Systolic blood pressure: -7%
Rattus norvegicus [26]
  Decrease in Systolic blood pressure: 38%
Rattus norvegicus [27]
  Activity: 28%
Rattus norvegicus [28]
  Decrease in Systolic blood pressure: 58%
Rattus norvegicus [29]
  Activity: 87%

## C#CCN1CCC2=C(C1)c1c(O)cc(C(C)CCCc3ccc(F)cc3)cc1OC2(C)C (stereo not given)
Rattus norvegicus [30]
  Decrease in Systolic blood pressure: 17%
Rattus norvegicus [31]
  Heart rate: -6%
Rattus norvegicus [32]
  Heart rate: 3%
Rattus norvegicus [33]
  Heart rate: 1%
Rattus norvegicus [34]
  Decrease in Systolic blood pressure: 30%
Rattus norvegicus [35]
  Decrease in Systolic blood pressure: -7%
Rattus norvegicus [36]
  Heart rate: -10%
Rattus norvegicus [37]
  Decrease in Systolic blood pressure: 5%
Rattus norvegicus [38]
  Decrease in Systolic blood pressure: -5%
Rattus norvegicus [39]
  Heart rate: 5%
Rattus norvegicus [40]
  Heart rate: 5%
Rattus norvegicus [41]
  Heart rate: 16%
Rattus norvegicus [42]
  Decrease in Systolic blood pressure: 1%
Rattus norvegicus [43]
  Heart rate: -3%
Rattus norvegicus [44]
  Decrease in Systolic blood pressure: 20%
Rattus norvegicus [45]
  Decrease in Systolic blood pressure: 11%
Rattus norvegicus [46]
  Heart rate: -18%
Rattus norvegicus [47]
  Heart rate: -12%
Rattus norvegicus [48]
  Decrease in Systolic blood pressure: 27%
Rattus norvegicus [49]
  Decrease in Systolic blood pressure: -3%
Rattus norvegicus [50]
  Decrease in Systolic blood pressure: 26%
Rattus norvegicus [51]
  Decrease in Systolic blood pressure: 33%
Rattus norvegicus [52]
  Decrease in Systolic blood pressure: 8%
Rattus norvegicus [53]
  Heart rate: 10%
Rattus norvegicus [54]
  Heart rate: -2%
Rattus norvegicus [55]
  Decrease in Systolic blood pressure: -5%
Rattus norvegicus [56]
  Heart rate: -9%
Rattus norvegicus [57]
  Decrease in Systolic blood pressure: 9%
Rattus norvegicus [58]
  Decrease in Systolic blood pressure: 34%
Rattus norvegicus [59]
  Heart rate: -5%
Rattus norvegicus [60]
  Heart rate: 36%
Rattus norvegicus [61]
  Heart rate: -29%
Rattus norvegicus [62]
  Decrease in Systolic blood pressure: 9%
Rattus norvegicus [63]
  Heart rate: -7%
Rattus norvegicus [64]
  Decrease in Systolic blood pressure: 43%
Rattus norvegicus [65]
  Heart rate: -7%
Rattus norvegicus [66]
  Decrease in Systolic blood pressure: 20%
Rattus norvegicus [67]
  Heart rate: -14%
Rattus norvegicus [68]
  Decrease in Systolic blood pressure: 23%

## CCCCCc1cc(O)c2c(c1)OC(C)(C)[C@@H]1CCC(C)=C[C@@H]21 [DRONABINOL]
Rattus norvegicus [69]
  Decrease in Systolic blood pressure: 21%
Rattus norvegicus [70]
  Decrease in Systolic blood pressure: 39%
